Measured values from patent US20240299345A1, “GINKGOLIDE B AND ITS DERIVATIVES FOR INHIBITING AND/OR REVERSING AGING” (CHINA MEDICAL UNIVERSITY, priority 2023, published 2024).

Legend:
[1] = tested on: 20-month-old aged female C57BL/6 mice; assay: Aging-related skeletal muscle wasting in aged mice; type: in vivo, mouse
Protocol: RIPA buffer (#ab156034, Abcam) containing 1X protease/phosphatase inhibitor (#1861281, Thermo Fisher Scientific) was used to lyse samples. Protein content was measured by BCA Protein Assay Kit (#23225, Thermo Fisher Scientific). Samples were loaded and separated in polyacrylamide gels and then transferred to PVDF membranes (#IPVH00010, Merck Millipore, Massachusetts, USA). The membranes were incubated with 5% BSA at room temperature for one hour and then incubated with primary antibodies overnight at 4° C., and then incubated with HRP-conjugated secondary antibodies (#SA00001-1, #SA100002-1, Proteintech, Rosemont, IL, USA) for one hour at room temperature. Signals were detected by the chemiluminescent substrate (#34095, Thermo Fisher Scientific) and were acquired by the ChemiDoc MP imaging system (Bio-Rad, Hercules, CA, USA).
Serum was collected by cardiac puncture upon sacrifice.
(§1) RNAs were purified by using the TRIzol® (#15596018, Invitrogen) and chloroform method (#C7559, Sigma-Aldrich) and reversed transcribed using High-Capacity cDNA Reverse Transcription Kit (#4368814, Applied Biosystems, Foster City, CA, USA). The quantitative RT-PCR was conducted with universal probe system (Roche Life Science, Indianapolis, IN, USA) by using a QuantStudio™ 7 Flex Real-Time PCR System (Applied Biosystems) and was normalized by the expression of GAPDH.
To investigate whether GB improves healthspan, we administered GB to 20-month-old aged mice, equivalent to 70-80-year-old humans, which is more relevant to potential clinical applications than intervention starting from young adulthood (Wang, S., Lai, X., Deng, Y. & Song, Y. Correlation between mouse age and human age in anti-tumor research: Significance and method establishment. Life Sci 242, 117242, doi: 10.1016/j.lfs.2019.117242 (2020)). After GB administration for two months, we assessed the healthspan domains in terms of sarcopenia, physical activity, metabolic health, frailty index, and inflammation (FIG. 2A) according to the criteria in clinical practice (Shamliyan, T., Talley, K. M., Ramakrishnan, R. & Kane, R. L. Association of frailty with survival: a systematic literature review. Ageing Res Rev 12, 719-736, doi: 10.1016/j.arr.2012.03.001 (2013)). As expected, circulating osteocalcin levels were decreased in aged mice, while GB administration increased osteocalcin levels (FIG. 2B, p<0.0001) toward the levels of those in young mice. […] In line with muscle loss, aging led to a decreased in total protein content (FIG. 2H, p<0.0001) in skeletal muscle with upregulation of muscle atrophy markers, Fbxo32 and Trim63, at transcript (FIG. 2K, p<0.0001 and=0.0005, respectively) and protein levels. (FIG. 2L, p=0.0182 and 0.0003, respectively). […] GB reversed the infiltration of adipose-like tissues by aging (FIGS. 2D and 2G, p=0.0012). […] GB administration reversed aging-related muscle wasting (FIG. 2K).

[2] = tested on: gastrocnemius (GA) muscle; assay: Ex vivo muscle contractility and fatigability of GA muscle from treated aged mice; type: in vivo, mouse; conditions: GB 2 months
Protocol: For the ex vivo muscle function test, the isolated right side gastrocnemius (GA) muscle were incubated in Krebs buffer at room temperature and with 95% O2 and 5% CO2 for five minutes. GA muscle received stimuli three times under the optimal length to evaluate twitch force. Three 150 Hz continuous stimuli were given to evaluate tetanic force. Twitch force and tetanic force were normalized to the cross-section area (CSA) of GA muscle. GA muscle fatigue was measured by repeated isometric tetanic contraction every 5 seconds for a total of 60 contractions. Five minutes and ten minutes after fatigue protocol, the maximal tetanic force was measured to assess post-fatigue recovery. All of the results were recorded with the Dynamic Muscle Control system (DMC v5.4; Aurora Scientific, Inc.), and results were analyzed by the Dynamic Muscle Analysis system (DMA v3.2; Aurora Scientific, Inc.).

[3] = tested on: ovariectomized (OVX) female C57BL/6 mice; assay: Postmenopausal (OVX, estrogen-deficient) mouse model: muscle wasting and physical activity; type: in vivo
Protocol: Forelimb grip strength was measured by a grip strength meter (Muromachi Kikai Co., Tokyo, Japan). Each mouse performed five trials for force measurement, and the values were normalized to body and recorded. A rotarod test was carried out by using the rotarod treadmill (Singa Technology Corporation, Taoyuan City, Taiwan). The speed was adjusted to 4 rpm for 4 sec, 10 rpm for 10 sec, 20 rpm for 20 sec, and then 40 rpm until the mice fell. Mice were familiarized with the rotarod and balance beam by running 5 min for three consecutive days before the onset of experimentation. During the experiment, each mouse performed four trials, and the average time that each rodent was able to stay on top of the rotarod treadmill was recorded. The balance beam test was used to assess subtle motor coordination and balance. After initial training, mice were given four consecutive trials where they were required to cross 60 cm of a round beam (14 mm in diameter). The time for crossing the beam and the number of hind-feet slip were recorded. Hanging endurance was determined by Kondziella's inverted hanging screen test. Mice were putted at the center of grasped wire screen (bar thickness, 2 mm; mesh, 10 mm). After inverting the wire screen, the time of sustained limb tension on the screen were recorded. A fixed maximum hanging limit of 600 seconds was used. Each trial was repeated three times at 30-min interval, the mean values were recorded.

[4] = tested on: IL-6, IFN-γ; F4/80, CD86, CD206 cells; assay: Tissue inflammatory cytokines (real-time PCR) and bone marrow macrophage IHC in aged mice; type: in vivo, mouse
Protocol: as §1

p16, p19, p57, γ-H2AX = assay: Senescence markers in multiple tissues of aged mice (real-time PCR, IHC); type: in vivo, mouse
Protocol: as §1

[5] = tested on: kidney, heart, spleen and liver in aged mice; conditions: mouse, in vivo
Protocol: All animals were purchased from Laboratory Animal Services Centre, the Chinese University of Hong Kong, ad libitum fed the standard diet (#5V0f, LabDiet, St. Louis, MO, USA), and housed at specific-pathogen-free and humidity-controlled conditions under a 12 light: 12 dark photoperiod with temperature at 20-22° C. Animals were kept up to five per cage and were randomly assigned to control and experimental groups in all experiments. […] For the short-term experiment, 3-(young), 6-(adult) and 20-month-old (aged) female C57BL/6 mice were administered 12 mg/kg body weight GB (#G6910, Sigma-Aldrich, St. Louis, MO, USA) or vehicle daily by oral gavage for two months. […] GB was diluted to the appropriate concentration in 100 μL of sterile PBS (#10378016, Gibco, Waltham, MA, USA).
Tissue samples were harvested and embedded in paraffin or in OCT (#4583, Sakura Finetek USA, Torrance, CA, USA). For paraffin-embedded samples, 10 μm sections were deparaffinized by xylene and alcohol gradient treatment and were then hydrated by distilled water and processed for heat-induced antigen retrieval with antigen retrieval solution at 70° C. for 1.5 hours before staining. For OCT-embedded samples, 10 μm sections were hydrated by distilled water before staining. Hematoxylin and cosin staining (#MHS16 and #HT110116 Sigma-Aldrich), oil red O staining (#00625, Sigma-Aldrich), and Masson's trichrome staining (#HT15, Sigma-Aldrich) were used to assess the histology, lipid droplet, and collagen deposition. For immunohistochemical staining, antigen-retrieval samples were blocked with 5% bovine serum albumin (BSA) (#A9647, Sigma-Aldrich) for 1 hour at room temperature and incubated with primary antibodies overnight at 4° C., followed by a ready-to-use IHC/ICC Kit (#K405, BioVision, Milpitas, CA, USA) at room temperature. The samples were then suspended with double-distilled water and then stained with hematoxylin. For immunocytochemical staining, samples were blocked with 5% BSA (Sigma-Aldrich) for 1 hour at room temperature and incubated with primary antibodies overnight at 4° C., then washed with PBS for ten minutes, and then incubated with secondary antibody for 1 hour at room temperature, then washed with PBS three times for ten minutes.

[6] = GB 3 and 12 mg/kg daily for two months

## CC1C(=O)OC2C(O)C34C5CC(C(C)(C)C)C36C(OC(=O)C6O)OC4(C(=O)O5)C12O (stereo not drawn) [GB, Ginkgolide B]
[1]; aged (20-month-old) female mice, GB 12 mg/kg daily oral 2 months vs vehicle-aged, p<0.0001
  circulating osteocalcin levels: increased
[1]; aged mice, GB 12 mg/kg daily oral 2 months vs vehicle-aged
  skeletal muscle-to-body ratio: significantly increased
[1]; aged mice, GB 12 mg/kg daily oral 2 months, p=0.0012
  infiltration of adipose-like tissues by aging: reversed
[1]; aged mice, quadriceps, GB 12 mg/kg daily oral 2 months vs vehicle-aged, p=0.0032
  myofiber CSA: significantly increased
[1]; gastrocnemius, aged mice, GB 12 mg/kg daily oral 2 months, p<0.0001
  total protein content in aged skeletal muscle: increased
[1]; gastrocnemius, aged mice, GB 2 months, p=0.0039 and 0.0003
  expression level of Trim63 (mRNA and protein): significant downregulation
[1]; gastrocnemius, aged mice, GB 2 months, p=0.0078 and 0.0182
  expression level of Fbxo32 (mRNA and protein): significant downregulation
[2]
  absolute tetanic force: significantly enhanced
  absolute twitch force: significantly enhanced
[2]; p=0.0003
  time to maximum force: reversed the increased time to maximum force to the youth levels
[2]; p=0.1161 and 0.1935
  specific force (normalized to muscle mass): modest increased
[2]; p=0.99 at five and ten minutes
  fatigue resistance or recovery rate: did not alter
[3]; [6]
  myofiber CSA: dose-dependently restored
  skeletal muscle mass: dose-dependently restored
[3]; high-dose GB, two months
  decline of motor performance: fully reversed
  forelimb grip strength: improved
[4]; GB 2 months, real-time PCR
  inflammatory cytokines IL-6 and IFN-γ in multiple tissues: downregulated
[4]; femur bone marrow IHC
  CD86+ pro-inflammatory M1 macrophages: decrease
  CD206+ anti-inflammatory M2 macrophages: increased
  aging-related accumulation of bone marrow F4/80+ cells: reversed
p16, p19, p57, γ-H2AX; IHC, multiple tissues of aged mice
  expression of histone γ-H2AX: reduced
p16, p19, p57, γ-H2AX; liver, kidney, lung, spleen, heart and muscle of aged mice, except p16 in spleen and p57 in lung
  expression of p16, p19 and p57: significantly inhibited
[5]
  circulating GOT, GPT and UA: reduction
  liver and spleen size: no effect
